In ChEMBL document CHEMBL1201862, “PubChem BioAssay data set” (2004) one finds IC50 and EC50 data, which are given here for three compounds.

The target in test [1] is T1, Apoptotic protease-activating factor 1 (Homo sapiens, UniProt O14727).
T1 sequence (O14727 whole entry): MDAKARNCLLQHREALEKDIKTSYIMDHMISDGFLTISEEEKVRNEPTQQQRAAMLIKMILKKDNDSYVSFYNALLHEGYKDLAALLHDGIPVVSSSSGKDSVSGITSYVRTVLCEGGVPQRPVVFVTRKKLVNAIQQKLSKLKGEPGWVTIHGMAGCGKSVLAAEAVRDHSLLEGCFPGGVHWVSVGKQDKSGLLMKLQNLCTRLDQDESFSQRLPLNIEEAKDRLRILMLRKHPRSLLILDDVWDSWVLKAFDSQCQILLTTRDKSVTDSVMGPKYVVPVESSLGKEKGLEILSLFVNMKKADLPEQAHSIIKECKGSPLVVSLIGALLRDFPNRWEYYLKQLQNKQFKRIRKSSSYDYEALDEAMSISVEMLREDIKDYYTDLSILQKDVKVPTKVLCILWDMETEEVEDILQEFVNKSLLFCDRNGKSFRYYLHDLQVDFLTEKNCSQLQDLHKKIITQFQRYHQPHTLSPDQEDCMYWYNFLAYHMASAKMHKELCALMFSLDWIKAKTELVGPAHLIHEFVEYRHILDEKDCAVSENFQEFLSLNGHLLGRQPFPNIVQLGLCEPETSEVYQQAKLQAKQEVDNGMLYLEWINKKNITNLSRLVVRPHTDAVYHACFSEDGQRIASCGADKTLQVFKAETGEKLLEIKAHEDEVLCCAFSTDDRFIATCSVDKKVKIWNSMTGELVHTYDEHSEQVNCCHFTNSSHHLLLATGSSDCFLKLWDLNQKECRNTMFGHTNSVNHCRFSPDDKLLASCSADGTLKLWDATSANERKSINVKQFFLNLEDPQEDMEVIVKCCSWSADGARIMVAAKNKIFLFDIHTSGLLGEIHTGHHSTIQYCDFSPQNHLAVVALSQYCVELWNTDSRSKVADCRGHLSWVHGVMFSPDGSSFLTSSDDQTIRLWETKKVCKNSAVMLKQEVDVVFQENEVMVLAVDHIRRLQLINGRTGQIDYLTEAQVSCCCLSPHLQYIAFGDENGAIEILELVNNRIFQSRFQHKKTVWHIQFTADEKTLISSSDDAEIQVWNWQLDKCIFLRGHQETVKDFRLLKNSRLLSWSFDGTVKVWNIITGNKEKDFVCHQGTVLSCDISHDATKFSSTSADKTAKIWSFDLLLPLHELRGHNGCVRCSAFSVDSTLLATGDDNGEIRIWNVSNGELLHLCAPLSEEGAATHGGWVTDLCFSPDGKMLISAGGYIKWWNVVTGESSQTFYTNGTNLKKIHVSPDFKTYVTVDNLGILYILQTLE
The test is classed as functional.

Test [2] deals with Serine/threonine-protein phosphatase PP1-alpha catalytic subunit (Homo sapiens, UniProt P62136). The test is described as follows: PP1 phosphatase inhibitors, dose response, biochemical, fluorescence (AID 2394).
Test [3] deals with T2, Mannose-6-phosphate isomerase (Homo sapiens, UniProt P34949).
T2 sequence (P34949 whole entry): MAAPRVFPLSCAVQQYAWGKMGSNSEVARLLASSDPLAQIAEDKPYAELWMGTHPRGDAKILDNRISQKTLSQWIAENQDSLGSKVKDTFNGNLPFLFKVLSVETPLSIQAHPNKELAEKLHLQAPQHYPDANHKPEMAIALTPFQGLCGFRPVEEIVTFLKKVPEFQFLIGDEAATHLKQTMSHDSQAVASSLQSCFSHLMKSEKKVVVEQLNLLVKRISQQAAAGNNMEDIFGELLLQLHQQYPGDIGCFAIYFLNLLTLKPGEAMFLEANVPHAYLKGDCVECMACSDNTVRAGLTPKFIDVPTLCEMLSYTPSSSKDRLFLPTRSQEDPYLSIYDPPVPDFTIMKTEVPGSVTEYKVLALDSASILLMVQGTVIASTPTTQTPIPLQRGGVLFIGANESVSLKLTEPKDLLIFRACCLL
Description: human PMI inhibitors, high substrate, primary screen, biochemical, fluorescence intensity, high mannose 6-phosphate (AID 1220).

The next test concerns BJ. Description: cytotoxicity toward Ras-transformed BJeLR fibroblasts, dose response, cell-based, alamar blue fluorescence, cherrypicked samples (AID 2631).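 Further: confirmatory dose-response assay in RAS-dependent BJ fibroblasts engineered with TERT, LT and ST, with cytotoxicity read by fluorescence.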 As to conditions: Homo sapiens. The test is classed as functional. Background: Alamar Blue is a resazurin reagent that responds to reducing activity.
Test [4] concerns the target T3, RNA-binding protein pos-1 (Caenorhabditis elegans, UniProt G5EF15).
T3 sequence (G5EF15 whole entry): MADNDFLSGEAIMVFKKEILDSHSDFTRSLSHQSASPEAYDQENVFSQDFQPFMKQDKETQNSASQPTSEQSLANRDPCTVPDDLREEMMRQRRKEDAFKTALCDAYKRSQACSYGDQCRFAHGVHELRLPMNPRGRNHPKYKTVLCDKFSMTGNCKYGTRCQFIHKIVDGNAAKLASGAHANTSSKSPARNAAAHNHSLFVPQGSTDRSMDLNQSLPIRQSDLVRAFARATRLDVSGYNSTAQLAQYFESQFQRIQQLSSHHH
The test is described as follows: inhibitors of POS-1/mex-3 RNA binding, dose response, biochemical, fluorescence polarization (AID 1964).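 Further: purified POS-1 fused to maltose binding protein made in E. coli; potency of compounds blocking POS-1 binding to fluorescent RNA.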

The nature of test [5]: SNU-C1 cell viability reduction, dose response, CellTiter-Glo luminescence (AID 1117323). Format: functional, cell-based. In general terms: ATP-based viability assays read luminescence as a measure of living cells.
The nature of test [6]: inhibitors of SNCA 5'UTR-driven reporter translation, confirmation, H4 neuroglioma cells, luminescence (AID 1988). Format: functional, cell-based.
Test [7] is described as follows: Concentration-dependent survival of SW480 colon cancer line, luminescence detection with CellTiter-Glo, half-maximal inhibitory concentration (AID 1117338). Format: functional.
Test [8] is described as follows: cytotoxicity toward Colo320 cells – cell-based, CellTiter-Glo luminescence, IC50, dose response (AID 1117334). Format: functional. As to conditions: COLO 320.
For test [9], the target named is T4, Rac GTPase-activating protein 1 (Homo sapiens, UniProt Q9H0H5).
T4 sequence (Q9H0H5 whole entry): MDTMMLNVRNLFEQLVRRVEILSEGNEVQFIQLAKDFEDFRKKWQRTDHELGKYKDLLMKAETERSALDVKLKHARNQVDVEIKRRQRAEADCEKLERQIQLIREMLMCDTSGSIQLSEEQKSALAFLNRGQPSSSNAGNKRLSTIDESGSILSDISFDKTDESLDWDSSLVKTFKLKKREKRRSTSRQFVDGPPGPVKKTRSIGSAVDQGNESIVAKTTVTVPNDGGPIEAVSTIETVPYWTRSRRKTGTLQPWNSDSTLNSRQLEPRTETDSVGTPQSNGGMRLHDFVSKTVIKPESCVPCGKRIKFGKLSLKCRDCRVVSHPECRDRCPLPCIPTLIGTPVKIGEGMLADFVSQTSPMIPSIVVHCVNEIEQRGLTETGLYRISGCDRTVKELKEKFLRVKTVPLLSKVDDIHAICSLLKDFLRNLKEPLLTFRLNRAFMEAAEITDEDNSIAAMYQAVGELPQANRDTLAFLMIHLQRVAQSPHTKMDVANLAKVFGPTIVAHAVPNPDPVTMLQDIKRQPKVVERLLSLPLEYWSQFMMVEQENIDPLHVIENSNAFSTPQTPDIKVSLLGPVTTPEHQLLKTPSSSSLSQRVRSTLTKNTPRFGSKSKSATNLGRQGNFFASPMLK
The test is described as follows: MgcRacGAP GTPase-activating activity inhibitors, confirmation, biochemical, ADP Hunter fluorescence, primary and confirmatory (AID 624330). Format: functional.

The nature of test [10]: cytotoxicity toward DRD oncogenic fibroblasts, dose response, cell-based, non-viral oncogenic, luminescence (AID 1934). The note with it: Homo sapiens. Format: functional.

Activity calls are given as the source filed them.

Serine/threonine-protein phosphatase PP1-alpha catalytic subunit, sequence (P62136 whole entry): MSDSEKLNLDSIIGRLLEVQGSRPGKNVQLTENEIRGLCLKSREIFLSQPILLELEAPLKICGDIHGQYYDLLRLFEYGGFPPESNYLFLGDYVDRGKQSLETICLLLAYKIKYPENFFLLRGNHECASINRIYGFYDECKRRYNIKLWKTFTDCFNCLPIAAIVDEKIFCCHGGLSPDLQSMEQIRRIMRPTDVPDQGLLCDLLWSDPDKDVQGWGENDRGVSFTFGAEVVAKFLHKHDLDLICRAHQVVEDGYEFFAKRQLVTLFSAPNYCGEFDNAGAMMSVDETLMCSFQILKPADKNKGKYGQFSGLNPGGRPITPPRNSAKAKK

`CCCOc1cc2c(C#N)c(N3CCCC3)nc(N)c2c(N)n1`: the results for the IC50 in test [1] and in [2] were 15 µM (active) and > 67 µM (not active), respectively.

Regarding `Oc1ccc(/C=N/Nc2cc(N3CCCC3)nc(N3CCCC3)n2)cc1O`, the IC50 was 2.56 µM (active) in test [1] and > 50 µM (not active) in test [3].

Consider `Cc1cc2nc3ccc(N(C)C)cc3[s+]c2cc1N` [TOLONIUM CHLORIDE], for which the concentration giving a half-maximal response (EC50) is 0.491 µM (inconclusive) in the test on BJ, > 300 µM (not active) in test [4], 7.13 µM (active) in test [6] and 8.46 µM (inconclusive) in test [10]. The IC50 was 5.56 µM (inactive) in [5], 1.4 µM (active) in test [7], 0.987 µM (active) in test [8] and 32.4 µM (active) in test [9].

A word on the IC50: it is the concentration needed to halve the response being measured. The EC50 is the concentration needed to bring the measured effect to its halfway point.
